Target: T1, BtsS (YehU) (Escherichia coli, UniProt P0AD14)
T1 construct: full-length BtsS-6His in membrane vesicles
Experiment: DRaCALA with […]-pyruvate on BtsS membrane vesicles, competition with cold pyruvate
Type: binding

T1 sequence (P0AD14 whole entry): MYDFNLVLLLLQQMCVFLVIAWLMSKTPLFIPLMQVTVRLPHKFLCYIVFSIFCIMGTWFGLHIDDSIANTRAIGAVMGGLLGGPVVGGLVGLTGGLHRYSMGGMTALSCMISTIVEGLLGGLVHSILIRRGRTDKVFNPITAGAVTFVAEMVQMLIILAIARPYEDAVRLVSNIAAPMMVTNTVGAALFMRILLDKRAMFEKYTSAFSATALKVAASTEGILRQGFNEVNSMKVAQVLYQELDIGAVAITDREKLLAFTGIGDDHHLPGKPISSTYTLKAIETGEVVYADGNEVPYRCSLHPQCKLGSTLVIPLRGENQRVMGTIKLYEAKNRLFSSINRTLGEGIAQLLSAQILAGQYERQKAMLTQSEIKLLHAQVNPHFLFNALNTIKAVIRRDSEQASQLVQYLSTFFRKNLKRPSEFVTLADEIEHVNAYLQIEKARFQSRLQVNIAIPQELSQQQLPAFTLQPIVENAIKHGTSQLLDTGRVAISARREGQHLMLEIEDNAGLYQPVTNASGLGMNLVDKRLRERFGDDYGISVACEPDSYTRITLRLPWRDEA

## CC(=O)C(=O)O [pyruvate]
  Kd: 58.6 ± 8.8 µM
